The target of experiment [1] is T1, TrkB (Rattus norvegicus, UniProt Q63604).
T1 construct: expressed in transfected cells; host or cells: HEK293T
The experiment can be described thus: biochemical. In kind it is binding. Conditions: for displacement of ^3H-LSD from TrkB: 1 nM to 10 µM of drug; for Bmax (specific binding with Hill slope, best-fit) / h (Hill slope, best-fit): ext fig 1f, competition curve, n=5.

For another experiment, the target named is T2, TrkB (WT) dimerization (Rattus norvegicus, UniProt Q63604).
T2 construct: expressed in transfected cells; host or cells: N2a
T2 sequence (Q63604 32-821): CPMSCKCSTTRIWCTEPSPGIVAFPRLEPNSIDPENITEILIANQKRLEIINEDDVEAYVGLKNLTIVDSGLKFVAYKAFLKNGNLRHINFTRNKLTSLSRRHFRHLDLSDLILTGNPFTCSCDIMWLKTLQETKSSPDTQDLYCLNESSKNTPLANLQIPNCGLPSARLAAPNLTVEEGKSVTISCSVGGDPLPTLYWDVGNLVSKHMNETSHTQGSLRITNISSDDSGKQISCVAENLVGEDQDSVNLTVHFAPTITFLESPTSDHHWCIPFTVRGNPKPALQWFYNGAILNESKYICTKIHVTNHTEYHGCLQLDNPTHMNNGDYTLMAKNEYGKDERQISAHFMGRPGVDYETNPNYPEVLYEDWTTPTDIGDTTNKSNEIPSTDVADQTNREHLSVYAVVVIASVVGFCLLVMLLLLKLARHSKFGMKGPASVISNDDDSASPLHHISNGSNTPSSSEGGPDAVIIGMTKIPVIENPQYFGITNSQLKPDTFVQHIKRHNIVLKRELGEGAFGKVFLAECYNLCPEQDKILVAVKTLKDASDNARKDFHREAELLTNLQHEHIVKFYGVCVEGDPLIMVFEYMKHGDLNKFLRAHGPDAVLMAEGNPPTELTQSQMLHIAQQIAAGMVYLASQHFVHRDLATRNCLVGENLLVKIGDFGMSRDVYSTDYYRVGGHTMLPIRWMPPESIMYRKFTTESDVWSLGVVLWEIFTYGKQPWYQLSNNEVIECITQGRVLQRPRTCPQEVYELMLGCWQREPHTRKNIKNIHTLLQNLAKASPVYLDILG
T2 sequence (Q63604 32-821): as above
The experiment can be described thus: Split-luciferase PCA of TrkB dimerization in N2a cells. In kind it is cell-based. The conditions noted are these: for Group mean (Mean 2; Vehicle:Vehicle = 100), fig 4e: n=48. As for the experimental part: Ketanserin, M100907 and TRKB.FC were added to the media 10 min before treatment. The PCA method was performed as previously described[11],[75],[76]. Split humanized Gaussia princeps luciferase (hGLuc) was cloned on the C-terminus of the reporter proteins TrkB (WT and Y433F) and lipid raft Fyn. If the reporter proteins that carry complementary halves of the luciferase interact, the enzyme can refold in its functional conformation and, upon addition of its substrate, produce luminescence proportionally to the amount of reporter proteins interacting at a given time. N2a cells were seeded in 96-well plates with opaque walls and transparent bottom (PerkinElmer, ViewPlate 96). Cells were transfected with Lipofectamine 2000 according to the manufacturer’s instructions 24 h post-plating with the PCA pair plasmids: phGLuc(1C)-TrkB(WT) or the mutant phGLuc(1C)-TrkB(Y433F) and phGLuc(2 C)-TrkB(WT) for the dimerization experiments; phGLuc(1C)-lipid raft Fyn and phGLuc(2C)-TrkB(WT) or phGLuc(2C)-TrkB(Y433F) for the lipid raft localization experiments. Forty-eight hours post transfection, cells were treated (40 min, 37 °C) in phenol red-free Dulbecco’s modified Eagle medium without serum. […] The PCA signal was detected with the substrate for the luciferase, native coelenterazine, which was injected into each well directly in the plate reader at a final concentration of […].

Experiment [2] concerns spine density of neuronal cultures. The experiment can be described thus: Spinogenesis in mature neuronal cultures (WT and Y433F^+/−). In kind it is cell-based, mouse. The arrangement: 6d: Mean (spinogenesis, spine density) / 6e: Mean (spinogenesis, spine density): unit not given here. As for the experimental part: Spinogenesis experiments were performed similarly to previous studies[12],[13] with modifications. […] In a separate set of experiments to study the effects of extracellular BDNF and 5-HT2A activation, cultures were also pretreated for 10 min with TrkB.FC (200 ng ml^−1) or M100907 (100 nM), respectively. TrkB.FC and M100907 remained in the medium for the rest of the experiment. Twenty-four hours later, coverslips were fixed with 4% PFA, washed with PBS, incubated with blocking buffer (0.1% Triton X-100, 0.05% Tween-20, 10% normal donkey serum, 1% BSA and 0.1% gelatin in PBS) for 1 h at room temperature and then overnight with rabbit anti-MAP2 (Invitrogen, PA5-17646; 1:100) primary antibody at 4 °C. After washing with PBS, coverslips were incubated with CF568-conjugated donkey anti-rabbit (Biotium, 20098; 1:500) for 1 h at room temperature. Another round of PBS washes was followed by incubation with Alexa Fluor 647-conjugated phalloidin (Invitrogen, A22287; 1:40) overnight at 4 °C. Next, coverslips were briefly washed in phosphate buffer (PB) and mounted on slides with ProLong Glass Antifade Mountant (Invitrogen, P36982). We used a Zeiss LSM 880 confocal microscope with an AiryScan GaAsP detector equipped with a PlanApochromat 63×/1.4 NA objective. We used the BP 495–550 + LP 570 AiryScan filter and Zen Black in super-resolution mode for image acquisition. Pinhole size was adapted accordingly, and frame size was set to optimal. Sensors were set to continuous adjustment across the imaging sessions to ensure optimal sensor alignment and signal detection. Raw data were processed into AiryScan images with the autofilter mode on using Zen Blue. Finally, image analysis was performed in ImageJ by experimenters blinded for treatment and genotype. Spines were quantified in 15-µm-long dendrite sections.

Experiment [3] has as its system dendritic arbor complexity of neuronal cultures. In words: Dendritogenesis (Sholl analysis) in neuronal cultures (WT and Y433F^+/−). Type of experiment: cell-based, mouse. Conditions: for Sholl analysis, Mean at distance from soma: fig 6j. Here is the method: In a separate set of experiments to study the effects of extracellular BDNF and 5-HT2A activation, cultures were also pretreated for 10 min with TrkB.FC (200 ng ml^−1) or M100907 (100 nM), respectively. Similar to treatment with the psychedelics, TrkB.FC and M100907 pretreatments were administered in cumulative doses and remained in the medium for the rest of the experiment. At DIV7, neurons were pre-incubated for 1 h with […] MgCl2 to prevent excitotoxicity, then neurons were transfected for the heterologous expression of mCherry. To minimize any possible interference of the transfection protocol upon the drug effect, transfection was done in the morning while treatment with psychedelics was always added in the evening. Twenty-four hours after transfection, neurons were fixed with 4% PFA for 20 min at room temperature, washed in PBS-T, blocked for 30 min with 3% BSA in PBS-T and incubated with chicken anti-MAP2 (Abcam, ab5392; 1:5,000, 1 h, room temperature). Then, coverslips were washed in PBS-T and incubated with Alexa Fluor 647-conjugated antibody goat anti-chicken (Invitrogen, A-21449; 1:1,000, 1 h, room temperature). Next, coverslips were washed in PBS-T and MilliQ water, and mounted in Dako fluorescence mounting medium (Agilent, S302380-2). Ten optical sections with a Z-step of 1.3 μm were acquired using a Zeiss LSM 710 confocal microscope with a LCI Plan/Neofluar 25×/0.8 lmm Korr DIC M27 objective. In the mCherry channel, the center of the soma was manually assigned and the number of dendritic intersections at fixed distances (every 5 μm) from the soma was automatically counted using the Sholl analysis plugin of ImageJ.

For the next experiment, the target named is T3, eGFP-tagged TrkB (WT) (Rattus norvegicus, UniProt Q63604).
T3 construct: expressed in transfected cells; host or cells: HEK293T
T3 sequence (Q63604 32-821): as above
The experiment can be described thus: Microscale thermophoresis (MST) in HEK293T lysates. Type of experiment: binding. Conditions: native (WT) TrkB. As for the experimental part: MST experiments were performed using the Monolith NT.115 (Blue/Red) instrument (NanoTemper Technologies). Lysates of HEK293T cells expressing GFP-tagged TrkB (WT, Y433F, TrkA.TM) were lysed, vortexed, sonicated and centrifuged 24 h after transient transfection and used as a source of fluorescently labeled TrkB, similarly to previously described protocols[11],[45]–[47]. The advantage of this approach is the possibility of studying the proteins in close-to-native conditions. However, the presence of other proteins, lipids, nucleic acids and other components of crude cell lysates can alter the diffusion of biomolecules and therefore binding affinities. High viscosity and background signal typically results in the affinity values being orders of magnitude […] than those of more traditional binding assays. […] The measurements were performed in premium coated capillaries (NanoTemper Technologies, MO-K025) using a LED source with 470 nm and 50% infrared-laser power at 25 °C. Analysis was performed using MO Affinity Analysis 2.3. Results were fitted to specific binding with Hill slope equations from GraphPad Prism 9.2.
On the technique in general: Microscale thermophoresis detects binding through changes in fluorescence in a small temperature gradient.

For experiment [4], the target named is T1, TrkB. In words: Biotin-labeled BDNF binding to immunoprecipitated TrkB. The conditions noted are these: ext fig 1e, n=4. As for the experimental part: Binding assays were performed as previously described with minor modifications. […] Samples from mouse embryo (E18) brains were also lysed, vortexed, sonicated and centrifuged for binding assays. Plates were then washed with PBS. […] For the competition binding assays with biotinylated R,R-HNK, the amino-biotinylation of R,R-HNK was performed using a commercial kit (Thermo Scientific, EZ-Link NHS-PEG4 Biotinylation Kit, 21455) and the reaction monitored by MS. A mixture of biotinylated R,R-HNK (10 µM) and unlabeled compounds (1 pM to 10 µM) in PBS was added to the 96-well plates containing the immunoprecipitated TrkB and incubated for 1 h at room temperature. […] Luminescence was determined via streptavidin conjugated with horseradish peroxidase (HRP; Thermo Fisher Scientific, 21126; 1:5,000, 1 h at room temperature) in reaction with the Pierce ECL substrate (Thermo Fisher Scientific, 32106). Luminescence from blank wells that contained all reagents but the sample lysates was used to determine nonspecific binding. To obtain the binding curves, results from binding assays were fitted to the equation of specific binding with Hill slope from GraphPad Prism 9.2. To calculate koff values, results were fitted to the equation of dissociation of one phase exponential decay from GraphPad Prism 9.2.

The mark [5] stands for this setting: treatment alone (other factor Vehicle).
Setting [6] is: TrkB.FC 200 ng ml^−1 or M100907 100 nM.

Counter-ions that a name gives are not always drawn. Like-named read-outs stand apart in the source and are kept apart here.

T1 sequence (Q63604 32-821): as above

Take `CN1C(=O)CN=C(c2ccccc2)c2cc(Cl)ccc21` [diazepam]: the “displacement of ^3H-LSD from TrkB” value at TrkB [1] is on record as “fail to displace ^3H-LSD”. For the same molecule, the “Fit status, one phase exponential decay” value at TrkB [1] (ext fig 1h) is reported as “Not converged”.
On to `CN(C)CCCN1c2ccccc2Sc2ccc(Cl)cc21` [chlorpromazine], for which the “displacement of ^3H-LSD from TrkB” value at TrkB [1] is “fail to displace ^3H-LSD”. Further, at TrkB [1] (ext fig 1h), the “Fit status, one phase exponential decay” value was “Interrupted”; the “K (one phase exponential decay, best-fit)” value was determined as 6.169; the “Plateau (one phase exponential decay, best-fit)” value came to 142318; the “Span (one phase exponential decay, best-fit)” value is reported as -142224.
As for “TrkB.FC: TrkB receptor bodies that sequester extracellular BDNF”, in the experiment with TrkB (WT) dimerization (ketanserin 100 nM, M100907 100 nM or TrkB.FC 200 ng ml^−1, 10 min before), the “effect of pretreatment on LSD- and BDNF-induced TrkB dimerization” value is “prevents the effects of LSD and BDNF on TrkB dimerization”. In addition, the “Group mean (Mean 2; Vehicle:Vehicle = 100), fig 4e” value in the experiment with TrkB (WT) dimerization (setting [5]) is on record as 100. In experiment [2] (setting [6]), the “effect of pretreatment on spinogenic effect of LSD” value is “prevented the spinogenic effect of LSD”. Besides, the “6e: Mean Diff. (Vehicle:Vehicle vs. treatment), Bonferroni's multiple comparisons test” value in experiment [2] (substance alone (with vehicle)) is reported as -0.45. Further, in experiment [2] (substance alone (with vehicle), Vehicle:Vehicle mean 7.05), the “6e: Mean (spinogenesis, spine density)” value is given as 7.5. Moreover, the “effect of pretreatment on LSD effects on dendritogenesis” value in experiment [3] (setting [6]) is “prevented LSD effects on dendritogenesis”. For the same molecule, the “dendritic arbor complexity, Mean Diff. (Vehicle:vehicle vs. group)” value in experiment [3] (fig 6i, Bonferroni's multiple comparisons test) was determined as 9.033. Also, the “dendritic arbor complexity, group mean (Mean 2)” value in experiment [3] (fig 6i, treatment:pretreatment groups, Vehicle:vehicle mean 69.72) came out at 60.69. The “Sholl analysis, Mean at distance from soma” value (from here on “Sholl analysis, Mean”) in experiment [3] (distance from soma 10 µm) is recorded as 6.276; in experiment [3] (distance from soma 15 µm) it was 6.586; in experiment [3] (distance from soma 20 µm), 5.414; in experiment [3] (distance from soma 25 µm) it was 4.966; in experiment [3] (distance from soma 30 µm), 4.621; in experiment [3] (distance from soma 35 µm) it was 3.655. Further, the “Sholl analysis, Mean” value was determined as 3.414 in experiment [3] (distance from soma 40 µm); 2.655 in experiment [3] (distance from soma 45 µm); 2.724 in experiment [3] (distance from soma 50 µm); 2.759 in experiment [3] (distance from soma 55 µm); 2.2069 in experiment [3] (distance from soma 60 µm); 2.241 in experiment [3] (distance from soma 65 µm). Further, the “Sholl analysis, Mean” value in experiment [3] (distance from soma 70 µm) is listed as 2.172; in experiment [3] (distance from soma 75 µm), 1.897; in experiment [3] (distance from soma 80 µm), 1.862; in experiment [3] (distance from soma 85 µm) it was 2.034; in experiment [3] (distance from soma 90 µm), 1.931; in experiment [3] (distance from soma 95 µm) it was 1.621. Also, the “Sholl analysis, Mean” value in experiment [3] (distance from soma 100 µm) worked out at 1.655.
By Ki is commonly meant a measure of affinity in units of concentration, obtained from inhibition or displacement. Take `N[C@@]1(c2ccccc2Cl)CCC[C@@H](O)C1=O` [R,R-HNK, 2R,6R-hydroxynorketamine]: the Ki on TrkB [1] (displacement of ^3H-LSD, read-out: Ki) came to 0.166 ± 0.0211 µM. For the same molecule, on TrkB [1], the “Bmax (specific binding with Hill slope, best-fit)” value is given as 107.6 and the “h (Hill slope, best-fit)” value is given as -0.8819.
For the molecule `CNC1(c2ccccc2Cl)CCCCC1=O` (centres unmarked) [ketamine, Ketamine hydrochloride], at TrkB [1], the Ki was 20.8 ± 8.86 µM; the “Bmax (specific binding with Hill slope, best-fit)” value was 98.59; the “h (Hill slope, best-fit)” value was -0.5468.

B1: BDNF: Brain-derived neurotrophic factor (protein, UniProt P23560 19-247, looked up)
Neurotrophic factor BDNF …: APMKEANIRGQGGLAYPGVRTHGTLESVNGPKAGSRGLTSLADTFEHVIEELLDEDQKVRPNEENNKDADLYTSRVMLSSQVPLEPPLLFLLEEYKNYLDAANMSMRVRRHSDPARRGELSVCDSISEWVTAADKKTAVDMSGGTVTVLEKVPVSKGQLKQYFYETKCNPMGYTKEGCRGIDKRHWNSQCRTTQSYVRALTMDSKKRIGWRFIRIDTSCVCTLTIKRGR
One may read the Kd as a measure of binding affinity in units of concentration. For the molecule B1, the “binding by MST” value with eGFP-tagged TrkB (WT) is given as “induces a shift in fluorescence”. Also, the “Group mean (Mean 2; Control:Vehicle = 100), fig 4f” value with TrkB (WT) dimerization (BDNF 0.1ng/ml, Control (no LSD), n=8) came to 147.4. In addition, the entries for the “Group mean (Mean 2; Vehicle:Vehicle = 100), fig 4e” value with TrkB (WT) dimerization (setting [5]) and with TrkB (WT) dimerization (with TrkB.FC) were 144.1 and 103, respectively. In the experiment with TrkB [4], the “Bmax (specific binding with Hill slope, best-fit)” value is recorded as 7.546. In addition, the “h (Hill slope, best-fit)” value in the experiment with TrkB [4] turned out to be 0.8134. For the same molecule, the Kd with TrkB [4] (read-out: Kd (specific binding with Hill slope, best-fit)) was 1.22 µM.

For the origin of these results see PMC10244169, “Psychedelics promote plasticity by directly binding to BDNF receptor TrkB” (Nature Neuroscience, 2023).
